From patent US20150259295A1, “SUBSTITUTED PYRAZOLE COMPOUNDS AS LPAR ANTAGONISTS” (Hoffmann-La Roche Inc., priority 2012, published 2015) come the findings set out here.

For one test, the target named is T1, LPA3R (Homo sapiens, UniProt Q9UBY5).
T1 sequence (Q9UBY5 1-353): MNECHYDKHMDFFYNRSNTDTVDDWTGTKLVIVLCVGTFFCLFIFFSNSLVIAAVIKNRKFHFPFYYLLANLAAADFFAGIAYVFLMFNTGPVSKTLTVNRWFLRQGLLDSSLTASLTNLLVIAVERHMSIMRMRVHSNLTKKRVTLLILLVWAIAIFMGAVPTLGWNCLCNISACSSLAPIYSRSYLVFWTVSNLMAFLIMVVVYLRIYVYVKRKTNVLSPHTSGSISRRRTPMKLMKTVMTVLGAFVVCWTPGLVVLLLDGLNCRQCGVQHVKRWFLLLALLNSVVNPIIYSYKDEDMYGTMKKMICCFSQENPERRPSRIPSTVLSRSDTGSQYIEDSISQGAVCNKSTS
Description: LPA3R antagonist activity (Table 1, calcium flux FLIPR). The format is cell-based. The protocol:
(§1) Calcium Flux Assay Using Fluorometric Imaging Plate Reader (FLIPR)
(§2) After incubation, both the cell and “assay” plates were brought to the FLIPR and 20 μL of the diluted compounds were transferred to the cell plates by the FLIPR. Compound addition was monitored by FLIPR to detect any agonist activity of the compounds. Plates were then incubated for 30 minutes at room temperature protected from light. After the incubation, plates were returned to the FLIPR and 20 μL of 4.5× concentrated agonist was added to the cell plates. During the assay, fluorescence readings were taken simultaneously from all 384 wells of the cell plate every 1.5 seconds. Five readings were taken to establish a stable baseline, then 20 μL of sample was rapidly (30 μL/sec) and simultaneously added to each well of the cell plate. The fluorescence was continuously monitored before, during and after sample addition for a total elapsed time of 100 seconds. Responses (increase in peak fluorescence) in each well following agonist addition was determined. The initial fluorescence reading from each well, prior to ligand stimulation, was used as zero baseline value for the data from that well. The responses were expressed as % inhibition of the buffer control.

In test [1] the target is human recombinant LPA1 Lysophospholipid receptor (Homo sapiens, UniProt Q92633). Put plainly: Calcium flux assay using FLIPR, LPA1R antagonist activity. The format is cell-based. As to conditions: for IC50: ChemiScreen calcium-optimized stable cell line, FLIPR calcium flux, antagonist mode. The protocol:
as §1
Cell Culture Conditions: The ChemiScreen Calcium-optimized stable cell line containing the human recombinant LPA1 Lysophospholipid receptor was purchased from Chemicon International, Inc./Millipore. The cells were cultured in DMEM-high glucose supplemented with 10% fetal bovine serum, 2 mM glutamine, 100 U/mL penicillin/100 μg/mL streptomycin, 1× non-essential amino acids, 10 mM HEPES and 0.25 mg/mL Geneticin. Cells were harvested with trypsin-EDTA and counted using ViaCount reagent. The cell suspension volume was adjusted to 2.0×10^5 cells/mL with complete growth media. Aliquots of 50 μL were dispensed into 384 well black/clear tissue culture treated plates (BD) and the microplates were placed in a 37° C. incubator overnight. The following day plates were used in the assay.
Dye Loading and Assay: Loading Buffer (FLIPR Calcium-4, Molecular Devices) was prepared by dissolving the contents of one bottle into 100 mL Hank's Balanced Salt Solution containing 20 mM HEPES and 2.5 mM probenecid. Plates were loaded onto Biotek plate washer and growth media was removed and replaced with 20 µL of Hank's Balanced Salt Solution containing 20 mM HEPES and 2.5 mM probenecid, followed by 25 μL of Loading Buffer. The plates were then incubated for 30 minutes at 37° C.
During the incubation, test compounds were prepared by adding 90 μL of HBSS/20 mM HEPES/0.1% BSA buffer to 2 μL of serially diluted compounds. To prepare serial dilutions, 10 mM stocks of compounds were prepared in 100% DMSO. The compound dilution plate was set up as follows: well #1 received 29 μL of stock compound and 31 μL DMSO; wells 2-10 received 40 μL of DMSO; mixed and transferred 20 μL of solution from well #1 into well #2; continued with 1:3 serial dilutions out 10 steps; transferred 2 μL of diluted compound into duplicate wells of 384 well “assay plate” and then added the 90 μL of buffer.
as §2
(In general: A change in cytosolic calcium serves as a functional read-out for many receptors and channels.)

Bounds are passed on as bounds.

Chain of human recombinant LPA1 Lysophospholipid receptor (Q92633 whole entry): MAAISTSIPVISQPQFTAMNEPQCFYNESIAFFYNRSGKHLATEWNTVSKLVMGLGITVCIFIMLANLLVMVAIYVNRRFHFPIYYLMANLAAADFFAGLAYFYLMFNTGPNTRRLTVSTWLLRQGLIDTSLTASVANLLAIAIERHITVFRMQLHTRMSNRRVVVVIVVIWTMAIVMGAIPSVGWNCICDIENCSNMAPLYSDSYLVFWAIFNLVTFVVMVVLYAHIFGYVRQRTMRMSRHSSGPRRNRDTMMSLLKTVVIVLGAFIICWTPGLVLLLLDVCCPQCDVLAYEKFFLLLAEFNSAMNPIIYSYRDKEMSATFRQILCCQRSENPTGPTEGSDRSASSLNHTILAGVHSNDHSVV

As for `Cn1ncc(-c2ccc(-c3ccc(C4(C(=O)O)CC4)cc3)cc2)c1NC(=O)OC1COC1` [Example 20, 1-{4′-[1-Methyl-5-((oxetan-3-yloxy)carbonylamino)-1H-pyrazol-4-yl]-biphenyl-4-yl}-cyclopropanecarboxylic acid], the IC50 (at LPA3R; in test [1]) was more than 30 µM each time.
In the case of `CC(OC(=O)Nc1c(-c2ccccc2F)cnn1C)c1ccccc1Cl` (racemic) [Example 13, [4-(2-Fluoro-phenyl)-2-methyl-2H-pyrazol-3-yl]-carbamic acid 1-(2-chloro-phenyl)-ethyl ester], the IC50 (in general, the concentration at which inhibition is half-maximal) on LPA3R is more than 30 µM; in test [1], 1.4 µM.
Taken in the same sequence, the figures for `C[C@@H](OC(=O)Nc1c(-c2ccc(-c3ccc(CC(=O)O)cc3)cc2)cnn1C)c1ccccc1` [Example 2, {4′-[1-Methyl-5-((R)-1-phenyl-ethoxycarbonylamino)-1H-pyrazol-4-yl]-biphenyl-4-yl}-acetic acid] were more than 30 µM and 0.035 µM.
For `C[C@@H](OC(=O)Nc1c(-c2ccccc2)cnn1C)c1ccccc1` [Example 1, 2-Methyl-4-phenyl-2H-pyrazol-3-yl-carbamic acid (R)-1-phenyl-ethyl ester], the IC50 at LPA3R is more than 30 µM; in test [1], 17.5 µM. In test [1] (@ 30 μM), the inhibition (commonly the percentage by which the read-out fell short of the control) at 30 µM came to 64.8%.
